Each molecule was assayed on HCI-027 (organoid from a triple-negative breast cancer xenograft) (assay: CTG-3D luminescence at 96 h relative to day-0 seeding control (ratio to day 0); higher = more growth / less cytotoxicity; PDxO 3D drug screen, 96 h, CTG-3D normalised to day-0 seeding control.). Settings: 10 µM; days in culture: 194.

Row | SMILES | CTG-3D luminescence at 96 h
1 | COc1cc2c(Oc3ccc4[nH]c(C)cc4c3F)ncnc2cc1OCCCN1CCCC1 [cediranib] | 0.0281
2 | CC(C)n1nc(-c2ccc3oc(N)nc3c2)c2c(N)ncnc21 [sapanisertib] | 0.441
3 | Cc1cc(Nc2ncnc3ccc(NC4=NC(C)(C)CO4)cc23)ccc1Oc1ccn2ncnc2c1 [tucatinib] | 1.41
4 | C[C@H](NC(=O)CCC(F)(F)F)C(=O)N[C@@H]1C(=O)N(CCO)c2ncccc2-c2ccccc21 [crenigacestat] | 0.312
5 | C[C@]12CC[C@@H]3c4ccc(O)cc4C[C@@H](CCCCCCCCC[S+]([O-])CCCC(F)(F)C(F)(F)F)[C@H]3[C@@H]1CC[C@@H]2O (some centres not stated) [fulvestrant] | 2.05
6 | O=C(c1ccc(F)c(F)c1Nc1ccc(I)cc1F)N1CC(O)([C@@H]2CCCCN2)C1 [cobimetinib] | 0.796
7 | O=C(/C=C/c1cccnc1)NCCCCC1CCN(C(=O)c2ccccc2)CC1 [FK866] | 0.0527
8 | CS(=O)(=O)c1ccc(C(=O)Nc2ccc(Cl)c(-c3ccccn3)c2)c(Cl)c1 [vismodegib] | 2.12
9 | C=CCn1c(=O)c2cnc(Nc3ccc(N4CCN(C)CC4)cc3)nc2n1-c1cccc(C(C)(C)O)n1 [adavosertib] | 0.0827

Same assay, conditions: 10 µM; days in culture: 201

Row | SMILES | CTG-3D luminescence at 96 h
10 | COc1cc2c(Oc3ccc4[nH]c(C)cc4c3F)ncnc2cc1OCCCN1CCCC1 [cediranib] | 0.0302
11 | CC(C)n1nc(-c2ccc3oc(N)nc3c2)c2c(N)ncnc21 [sapanisertib] | 0.301
12 | Cc1cc(Nc2ncnc3ccc(NC4=NC(C)(C)CO4)cc23)ccc1Oc1ccn2ncnc2c1 [tucatinib] | 0.716
13 | C[C@H](NC(=O)CCC(F)(F)F)C(=O)N[C@@H]1C(=O)N(CCO)c2ncccc2-c2ccccc21 [crenigacestat] | 0.258
14 | C[C@]12CC[C@@H]3c4ccc(O)cc4C[C@@H](CCCCCCCCC[S+]([O-])CCCC(F)(F)C(F)(F)F)[C@H]3[C@@H]1CC[C@@H]2O (some centres not stated) [fulvestrant] | 2.01
15 | O=C(c1ccc(F)c(F)c1Nc1ccc(I)cc1F)N1CC(O)([C@@H]2CCCCN2)C1 [cobimetinib] | 0.365
16 | O=C(/C=C/c1cccnc1)NCCCCC1CCN(C(=O)c2ccccc2)CC1 [FK866] | 0.0561
17 | CS(=O)(=O)c1ccc(C(=O)Nc2ccc(Cl)c(-c3ccccn3)c2)c(Cl)c1 [vismodegib] | 1.74
18 | C=CCn1c(=O)c2cnc(Nc3ccc(N4CCN(C)CC4)cc3)nc2n1-c1cccc(C(C)(C)O)n1 [adavosertib] | 0.0964

Same assay, conditions: 100 µM; days in culture: 176

Row | SMILES | CTG-3D luminescence at 96 h
19 | COc1cc2c(Oc3ccc4[nH]c(C)cc4c3F)ncnc2cc1OCCCN1CCCC1 [cediranib] | -0.00276
20 | CC(C)n1nc(-c2ccc3oc(N)nc3c2)c2c(N)ncnc21 [sapanisertib] | 0.0926
21 | Cc1cc(Nc2ncnc3ccc(NC4=NC(C)(C)CO4)cc23)ccc1Oc1ccn2ncnc2c1 [tucatinib] | 0.0112
22 | C[C@H](NC(=O)CCC(F)(F)F)C(=O)N[C@@H]1C(=O)N(CCO)c2ncccc2-c2ccccc21 [crenigacestat] | 0.335
23 | C[C@]12CC[C@@H]3c4ccc(O)cc4C[C@@H](CCCCCCCCC[S+]([O-])CCCC(F)(F)C(F)(F)F)[C@H]3[C@@H]1CC[C@@H]2O (some centres not stated) [fulvestrant] | 2.18
24 | O=C(c1ccc(F)c(F)c1Nc1ccc(I)cc1F)N1CC(O)([C@@H]2CCCCN2)C1 [cobimetinib] | 0.0169
25 | O=C(/C=C/c1cccnc1)NCCCCC1CCN(C(=O)c2ccccc2)CC1 [FK866] | 0.082
26 | CS(=O)(=O)c1ccc(C(=O)Nc2ccc(Cl)c(-c3ccccn3)c2)c(Cl)c1 [vismodegib] | -0.204
27 | C=CCn1c(=O)c2cnc(Nc3ccc(N4CCN(C)CC4)cc3)nc2n1-c1cccc(C(C)(C)O)n1 [adavosertib] | 0.0542

Same assay, conditions: 100 µM; days in culture: 194

Row | SMILES | CTG-3D luminescence at 96 h
28 | COc1cc2c(Oc3ccc4[nH]c(C)cc4c3F)ncnc2cc1OCCCN1CCCC1 [cediranib] | -0.00212
29 | CC(C)n1nc(-c2ccc3oc(N)nc3c2)c2c(N)ncnc21 [sapanisertib] | 0.102
30 | Cc1cc(Nc2ncnc3ccc(NC4=NC(C)(C)CO4)cc23)ccc1Oc1ccn2ncnc2c1 [tucatinib] | 0.0114
31 | C[C@H](NC(=O)CCC(F)(F)F)C(=O)N[C@@H]1C(=O)N(CCO)c2ncccc2-c2ccccc21 [crenigacestat] | 0.344
32 | C[C@]12CC[C@@H]3c4ccc(O)cc4C[C@@H](CCCCCCCCC[S+]([O-])CCCC(F)(F)C(F)(F)F)[C@H]3[C@@H]1CC[C@@H]2O (some centres not stated) [fulvestrant] | 2.15
33 | O=C(c1ccc(F)c(F)c1Nc1ccc(I)cc1F)N1CC(O)([C@@H]2CCCCN2)C1 [cobimetinib] | 0.014
34 | O=C(/C=C/c1cccnc1)NCCCCC1CCN(C(=O)c2ccccc2)CC1 [FK866] | 0.0718
35 | CS(=O)(=O)c1ccc(C(=O)Nc2ccc(Cl)c(-c3ccccn3)c2)c(Cl)c1 [vismodegib] | -0.0508
36 | C=CCn1c(=O)c2cnc(Nc3ccc(N4CCN(C)CC4)cc3)nc2n1-c1cccc(C(C)(C)O)n1 [adavosertib] | 0.0536

Same assay, conditions: 100 µM; days in culture: 201

Row | SMILES | CTG-3D luminescence at 96 h
37 | COc1cc2c(Oc3ccc4[nH]c(C)cc4c3F)ncnc2cc1OCCCN1CCCC1 [cediranib] | -0.000884
38 | CC(C)n1nc(-c2ccc3oc(N)nc3c2)c2c(N)ncnc21 [sapanisertib] | 0.141
39 | Cc1cc(Nc2ncnc3ccc(NC4=NC(C)(C)CO4)cc23)ccc1Oc1ccn2ncnc2c1 [tucatinib] | 0.01
40 | C[C@H](NC(=O)CCC(F)(F)F)C(=O)N[C@@H]1C(=O)N(CCO)c2ncccc2-c2ccccc21 [crenigacestat] | 0.259
41 | C[C@]12CC[C@@H]3c4ccc(O)cc4C[C@@H](CCCCCCCCC[S+]([O-])CCCC(F)(F)C(F)(F)F)[C@H]3[C@@H]1CC[C@@H]2O (some centres not stated) [fulvestrant] | 1.85
42 | O=C(c1ccc(F)c(F)c1Nc1ccc(I)cc1F)N1CC(O)([C@@H]2CCCCN2)C1 [cobimetinib] | 0.0102
43 | O=C(/C=C/c1cccnc1)NCCCCC1CCN(C(=O)c2ccccc2)CC1 [FK866] | 0.0649
44 | CS(=O)(=O)c1ccc(C(=O)Nc2ccc(Cl)c(-c3ccccn3)c2)c(Cl)c1 [vismodegib] | 0.019
45 | C=CCn1c(=O)c2cnc(Nc3ccc(N4CCN(C)CC4)cc3)nc2n1-c1cccc(C(C)(C)O)n1 [adavosertib] | 0.0691

Same assay, conditions: 625 fM; days in culture: 176

Row | SMILES | CTG-3D luminescence at 96 h
46 | COc1cc2c(Oc3ccc4[nH]c(C)cc4c3F)ncnc2cc1OCCCN1CCCC1 [cediranib] | 1.66
47 | CC(C)n1nc(-c2ccc3oc(N)nc3c2)c2c(N)ncnc21 [sapanisertib] | 1.82
48 | Cc1cc(Nc2ncnc3ccc(NC4=NC(C)(C)CO4)cc23)ccc1Oc1ccn2ncnc2c1 [tucatinib] | 1.82
49 | C[C@H](NC(=O)CCC(F)(F)F)C(=O)N[C@@H]1C(=O)N(CCO)c2ncccc2-c2ccccc21 [crenigacestat] | 1.6
50 | C[C@]12CC[C@@H]3c4ccc(O)cc4C[C@@H](CCCCCCCCC[S+]([O-])CCCC(F)(F)C(F)(F)F)[C@H]3[C@@H]1CC[C@@H]2O (some centres not stated) [fulvestrant] | 2.36
51 | O=C(c1ccc(F)c(F)c1Nc1ccc(I)cc1F)N1CC(O)([C@@H]2CCCCN2)C1 [cobimetinib] | 1.76
52 | O=C(/C=C/c1cccnc1)NCCCCC1CCN(C(=O)c2ccccc2)CC1 [FK866] | 2.22
53 | CS(=O)(=O)c1ccc(C(=O)Nc2ccc(Cl)c(-c3ccccn3)c2)c(Cl)c1 [vismodegib] | 2.79
54 | C=CCn1c(=O)c2cnc(Nc3ccc(N4CCN(C)CC4)cc3)nc2n1-c1cccc(C(C)(C)O)n1 [adavosertib] | 2.5

Same assay, conditions: 625 fM; days in culture: 194

Row | SMILES | CTG-3D luminescence at 96 h
55 | COc1cc2c(Oc3ccc4[nH]c(C)cc4c3F)ncnc2cc1OCCCN1CCCC1 [cediranib] | 1.47
56 | CC(C)n1nc(-c2ccc3oc(N)nc3c2)c2c(N)ncnc21 [sapanisertib] | 1.57
57 | Cc1cc(Nc2ncnc3ccc(NC4=NC(C)(C)CO4)cc23)ccc1Oc1ccn2ncnc2c1 [tucatinib] | 1.7
58 | C[C@H](NC(=O)CCC(F)(F)F)C(=O)N[C@@H]1C(=O)N(CCO)c2ncccc2-c2ccccc21 [crenigacestat] | 1.57
59 | C[C@]12CC[C@@H]3c4ccc(O)cc4C[C@@H](CCCCCCCCC[S+]([O-])CCCC(F)(F)C(F)(F)F)[C@H]3[C@@H]1CC[C@@H]2O (some centres not stated) [fulvestrant] | 1.71
60 | O=C(c1ccc(F)c(F)c1Nc1ccc(I)cc1F)N1CC(O)([C@@H]2CCCCN2)C1 [cobimetinib] | 1.65
61 | O=C(/C=C/c1cccnc1)NCCCCC1CCN(C(=O)c2ccccc2)CC1 [FK866] | 1.63
62 | CS(=O)(=O)c1ccc(C(=O)Nc2ccc(Cl)c(-c3ccccn3)c2)c(Cl)c1 [vismodegib] | 2.34
63 | C=CCn1c(=O)c2cnc(Nc3ccc(N4CCN(C)CC4)cc3)nc2n1-c1cccc(C(C)(C)O)n1 [adavosertib] | 1.42

Same assay, conditions: 625 fM; days in culture: 201

Row | SMILES | CTG-3D luminescence at 96 h
64 | COc1cc2c(Oc3ccc4[nH]c(C)cc4c3F)ncnc2cc1OCCCN1CCCC1 [cediranib] | 1.9
65 | CC(C)n1nc(-c2ccc3oc(N)nc3c2)c2c(N)ncnc21 [sapanisertib] | 2.47
66 | Cc1cc(Nc2ncnc3ccc(NC4=NC(C)(C)CO4)cc23)ccc1Oc1ccn2ncnc2c1 [tucatinib] | 2.42
67 | C[C@H](NC(=O)CCC(F)(F)F)C(=O)N[C@@H]1C(=O)N(CCO)c2ncccc2-c2ccccc21 [crenigacestat] | 1.97
68 | C[C@]12CC[C@@H]3c4ccc(O)cc4C[C@@H](CCCCCCCCC[S+]([O-])CCCC(F)(F)C(F)(F)F)[C@H]3[C@@H]1CC[C@@H]2O (some centres not stated) [fulvestrant] | 2.4
69 | O=C(c1ccc(F)c(F)c1Nc1ccc(I)cc1F)N1CC(O)([C@@H]2CCCCN2)C1 [cobimetinib] | 2.09
70 | O=C(/C=C/c1cccnc1)NCCCCC1CCN(C(=O)c2ccccc2)CC1 [FK866] | 1.74
71 | CS(=O)(=O)c1ccc(C(=O)Nc2ccc(Cl)c(-c3ccccn3)c2)c(Cl)c1 [vismodegib] | 3.54
72 | C=CCn1c(=O)c2cnc(Nc3ccc(N4CCN(C)CC4)cc3)nc2n1-c1cccc(C(C)(C)O)n1 [adavosertib] | 1.7
